# Laboratory results taken from US20240067662A1, “KRAS INHIBITORS” (Bristol-Myers Squibb Company, priority 2022, published 2024).
# Biological target: GMPPNP-loaded KRAS G12C (Homo sapiens, UniProt P01116, G12C)
# Test: KRAS G12C RAF Disruption Assay (HTRF)
# Type: biochemical
# Conditions: recombinant GMPPNP-loaded KRAS G12C (5 nM), 20 min with compound; GST-RAF1 RBD (9 nM); HTRF signal; read-out: KRASG12C RAF Disruption Assay (IC50)
# Protocol: KRAS^G12C RAF Disruption Assay
# This is a functional assay that measures activity of compounds against KRAS-G12C^(ON), i.e., the active form of KRAS G12C. Recombinant GMPPNP-loaded KRAS G12C (5 nM) was treated with compound at room temperature for 20 minutes in assay buffer (50 mM Tris pH 7.5, 100 mM NaCl, 1 mM MgCl2, 1 mM DTT, 100ug/ml BSA). Recombinant GST-RAF1 RBD (9 nM) was added, and the reaction mixture was incubated for 20 minutes. SA-Tb (0.25 nM) was added, and the reaction mixture was incubated for 3 hours. HTRF signal was measured (PerkinElmer Envision), the signal ratio (λem 520/λem 495) was calculated, and IC50 values were calculated from the dose-response curve.
# GMPPNP-loaded KRAS G12C, sequence (P01116 1-188 isoform P01116-2 G12C): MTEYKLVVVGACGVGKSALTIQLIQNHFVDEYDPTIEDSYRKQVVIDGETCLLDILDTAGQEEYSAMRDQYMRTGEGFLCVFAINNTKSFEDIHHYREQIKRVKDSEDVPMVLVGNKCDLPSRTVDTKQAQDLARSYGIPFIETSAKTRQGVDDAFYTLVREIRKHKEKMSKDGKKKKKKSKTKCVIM
row,SMILES,IC50 [nM]
1,"N#CC[C@H]1CN(c2nc(OC[C@@]34CCCN3C[C@H](F)C4)nc3c(F)c(-c4cc(F)ccc4C(F)(F)F)ncc23)CCN1C(=O)/C(F)=C/c1ccccn1 [Example 44, 2-((S)-1-((Z)-2-fluoro-3-(pyridin-2-yl)acryloyl)-4-(8-fluoro-7-(5-fluoro-2-(trifluoromethyl)phenyl)-2-(((2R, 7aS)-2-fluorotetrahydro-1H-pyrrolizin-7a(5H)-yl)methoxy)pyrido[4,3-d]pyrimidin-4-yl)piperazin-2-yl)acetonitrile]",360
2,"C#Cc1cccc2cccc(-c3ncc4c(N5CC[C@@H]6CN(C(=O)/C(F)=C/c7ncccn7)C[C@@H]65)nc(OC[C@@]56CCCN5C[C@H](F)C6)nc4c3F)c12 [Compound 86, (Z)-1-((3aR, 6aR)-1-(7-(8-ethynylnaphthalen-1-yl)-8-fluoro-2-(((2R, 7aS)-2-fluorotetrahydro-1H-pyrrolizin-7a(5H)-yl)methoxy)pyrido[4,3-d]pyrimidin-4-yl)hexahydropyrrolo[3,4-b]pyrrol-5(1H)-yl)-2-fluoro-3-(pyrimidin-2-yl)prop-2-en-1-one]",110
3,"C#Cc1cccc2cccc(-c3ncc4c(N(C)C5CCN(C(=O)/C(F)=C/c6ccccn6)C5C)nc(OC[C@@]56CCCN5C[C@H](F)C6)nc4c3F)c12 (single isomer, unassigned) [Example 74 cis isomer 2]",910
4,"N#CC[C@H]1CN(c2nc(OC[C@@]34CCCN3C[C@H](F)C4)nc3c(F)c(-c4cc(F)ccc4C(F)F)ncc23)CCN1C(=O)/C(F)=C/c1ccccn1 [Example 42, 2-((S)-4-(7-(2-(difluoromethyl)-5-fluorophenyl)-8-fluoro-2-(((2R, 7aS)-2-fluorotetrahydro-1H-pyrrolizin-7a(5H)-yl)methoxy)pyrido[4,3-d]pyrimidin-4-yl)-1-((Z)-2-fluoro-3-(pyridin-2-yl)acryloyl)piperazin-2-yl)acetonitrile]",760
5,"C#Cc1cccc2cccc(-c3ncc4c(N5CCC6(CCN6C(=O)/C(F)=C/c6nccs6)C5)nc(OC[C@@]56CCCN5C[C@H](F)C6)nc4c3F)c12 (single isomer, unassigned) [Compound 103]",620
6,"CCc1cccc2cccc(-c3ncc4c(N5CCN(C(=O)/C(F)=C/c6nccs6)[C@@H](CC#N)C5)nc(OC[C@@H]5CCCN5C)nc4c3F)c12 [Example 24, 2-((S)-4-(7-(8-ethylnaphthalen-1-yl)-8-fluoro-2-(((S)-1-methylpyrrolidin-2-yl)methoxy)pyrido[4,3-d]pyrimidin-4-yl)-1-((Z)-2-fluoro-3-(thiazol-2-yl)acryloyl)piperazin-2-yl)acetonitrile]",110
7,"C#Cc1c(F)ccc2cc(O)cc(-c3ncc4c(N5CCN(C(=O)/C(F)=C/c6ccccn6)CC5)nc(OC[C@]56CCC[C@H]5N(C)CCC6)nc4c3F)c12 [Example 59, (Z)-1-(4-(7-(8-ethynyl-7-fluoro-3-hydroxynaphthalen-1-yl)-8-fluoro-2-(((4aS, 7aR)-1-methyloctahydro-4aH-cyclopenta[b]pyridin-4a-yl)methoxy)pyrido[4,3-d]pyrimidin-4-yl)piperazin-1-yl)-2-fluoro-3-(pyridin-2-yl)prop-2-en-1-one]",2
8,"C#Cc1c(F)ccc2cc(O)cc(-c3ncc4c(N5CCN(C(=O)/C(F)=C/c6ccccn6)CC5)nc(OC[C@@]56CCCN5C[C@H](F)C6)nc4c3F)c12 [Example 27, (Z)-1-(4-(7-(8-ethynyl-7-fluoro-3-hydroxynaphthalen-1-yl)-8-fluoro-2-(((2R, 7aS)-2-fluorotetrahydro-1H-pyrrolizin-7a(5H)-yl)methoxy)pyrido[4,3-d]pyrimidin-4-yl)piperazin-1-yl)-2-fluoro-3-(pyridin-2-yl)prop-2-en-1-one]",3
9,"CN(c1nc(OC[C@@]23CCCN2C[C@H](F)C3)nc2c(F)c(-c3cccc4cccc(C#N)c34)ncc12)[C@@H]1CCN(C(=O)/C(F)=C/c2ccccn2)C1 [Compound 113, 8-(8-fluoro-4-(((R)-1-((Z)-2-fluoro-3-(pyridin-2-yl)acryloyl)pyrrolidin-3-yl)(methyl)amino)-2-(((2R, 7aS)-2-fluorotetrahydro-1H-pyrrolizin-7a(5H)-yl)methoxy)pyrido[4,3-d]pyrimidin-7-yl)-1-naphthonitrile]",156
10,"C#Cc1c(F)ccc2cccc(-c3ncc4c(N5CCN(C(=O)/C(F)=C/c6ncccn6)C[C@@H]5C)nc(OC[C@@]56CCCN5C[C@H](F)C6)nc4c3F)c12 [Compound 90, (Z)-1-((S)-4-(7-(8-ethynyl-7-fluoronaphthalen-1-yl)-8-fluoro-2-(((2R, 7aS)-2-fluorotetrahydro-1H-pyrrolizin-7a(5H)-yl)methoxy)pyrido[4,3-d]pyrimidin-4-yl)-3-methylpiperazin-1-yl)-2-fluoro-3-(pyrimidin-2-yl)prop-2-en-1-one]",110
11,"C#Cc1cccc2cccc(-c3ncc4c(N5CCN(C(=O)/C(Cl)=C/c6ccccn6)CC5)nc(OC[C@@]56CCCN5C[C@H](F)C6)nc4c3F)c12 [Compound 126, (Z)-2-chloro-1-(4-(7-(8-ethynylnaphthalen-1-yl)-8-fluoro-2-(((2R, 7aS)-2-fluorotetrahydro-1H-pyrrolizin-7a(5H)-yl)methoxy)pyrido[4,3-d]pyrimidin-4-yl)piperazin-1-yl)-3-(pyridin-2-yl)prop-2-en-1-one]",47000
12,"C#Cc1ccc(F)c2cccc(-c3ncc4c(N5CCN(C(=O)/C(F)=C/c6ncccn6)CC5)nc(OC[C@@]56CCCN5C[C@H](F)C6)nc4c3F)c12 [Compound 97, (Z)-1-(4-(7-(8-ethynyl-5-fluoronaphthalen-1-yl)-8-fluoro-2-(((2R, 7aS)-2-fluorotetrahydro-1H-pyrrolizin-7a(5H)-yl)methoxy)pyrido[4,3-d]pyrimidin-4-yl)piperazin-1-yl)-2-fluoro-3-(pyrimidin-2-yl)prop-2-en-1-one]",550
13,"C#Cc1cccc2cccc(-c3ncc4c(N5CCN(C(=O)/C(F)=C/c6cncc(C)n6)CC5)nc(OC[C@@]56CCCN5C[C@H](F)C6)nc4c3F)c12 [Compound 125, (Z)-1-(4-(7-(8-ethynylnaphthalen-1-yl)-8-fluoro-2-(((2R, 7aS)-2-fluorotetrahydro-1H-pyrrolizin-7a(5H)-yl)methoxy)pyrido[4,3-d]pyrimidin-4-yl)piperazin-1-yl)-2-fluoro-3-(6-methylpyrazin-2-yl)prop-2-en-1-one]",480
14,"C#Cc1c(F)ccc2cccc(-c3ncc4c(N(C)[C@@H]5CCN(C(=O)/C(F)=C/c6nccs6)C5)nc(OC[C@@]56CCCN5C[C@H](F)C6)nc4c3F)c12 [Compound 118, (Z)-1-((R)-3-((7-(8-ethynyl-7-fluoronaphthalen-1-yl)-8-fluoro-2-(((2R, 7aS)-2-fluorotetrahydro-IH-pyrrolizin-7a(5H)-yl)methoxy)pyrido[4,3-d]pyrimidin-4-yl)(methyl)amino)pyrrolidin-1-yl)-2-fluoro-3-(thiazol-2-yl)prop-2-en-1-one]",30
15,"CN1CCC[C@H]1COc1nc(N2CCN(C(=O)/C(F)=C/c3ccccn3)[C@@H](CC#N)C2)c2cnc(-c3cccc4ccccc34)c(F)c2n1 [Compound 19B, 2-((S)-4-(8-fluoro-2-(((S)-1-methylpyrrolidin-2-yl)methoxy)-7-(naphthalen-1-yl)pyrido[4,3-d]pyrimidin-4-yl)-1-((Z)-2-fluoro-3-(pyridin-2-yl)acryloyl)piperazin-2-yl)acetonitrile]",270
16,"N#Cc1cccc2cccc(-c3ncc4c(N5CCN(C(=O)/C(F)=C/c6nccs6)CC5)nc(OC[C@@]56CCCN5C[C@H](F)C6)nc4c3F)c12 [Example 50, 8-(8-fluoro-4-(4-((Z)-2-fluoro-3-(thiazol-2-yl)acryloyl)piperazin-1-yl)-2-(((2R, 7aS)-2-fluorotetrahydro-1H-pyrrolizin-7a(5H)-yl)methoxy)pyrido[4,3-d]pyrimidin-7yl)-1-naphthonitrile]",840
17,"C#Cc1c(F)ccc2cc(O)cc(-c3ncc4c(N5C[C@H]6CC[C@@H](C5)N6C(=O)/C(F)=C/c5cnccn5)nc(OC[C@@]56CCCN5C[C@H](F)C6)nc4c3F)c12 [Compound 16, (Z)-1-((1R, 5S)-3-(7-(8-ethynyl-7-fluoro-3-hydroxynaphthalen-1-yl)-8-fluoro-2-(((2R, 7aS)-2-fluorotetrahydro-1H-pyrrolizin-7a(5H)-yl)methoxy)pyrido[4,3-d]pyrimidin-4-yl)-3,8-diazabicyclo[3.2.1]octan-8-yl)-2-fluoro-3-(pyrazin-2-yl)prop-2-en-1-one]",180
18,"Cn1ncc2cccc(-c3ncc4c(N5CCN(C(=O)/C(F)=C/c6ccccn6)CC5)nc(OC[C@@]56CCCN5C[C@H](F)C6)nc4c3F)c21 [Example 38, (Z)-2-fluoro-1-(4-(8-fluoro-2-(((2R, 7aS)-2-fluorotetrahydro-1H-pyrrolizin-7a(5H)-yl)methoxy)-7-(1-methyl-1H-indazol-7-yl)pyrido[4,3-d]pyrimidin-4-yl)piperazin-1-yl)-3-(pyridin-2-yl)prop-2-en-1-one]",4700
19,"Cn1ncc2cccc(-c3ncc4c(N5CCN(C(=O)/C(F)=C/c6nccs6)[C@@H](CC#N)C5)nc(OC[C@@]56CCCN5C[C@H](F)C6)nc4c3F)c21 [Example 52, 2-((S)-4-(8-fluoro-2-(((2R, 7aS)-2-fluorotetrahydro-1H-pyrrolizin-7a(5H)-yl)methoxy)-7-(1-methyl-1H-indazol-7-yl)pyrido[4,3-d]pyrimidin-4-yl)-1-((Z)-2-fluoro-3-(thiazol-2-yl)acryloyl)piperazin-2-yl)acetonitrile]",430
